Reference: patent US20240368191A1, “HETEROCYCLIC COMPOUNDS AND USES THEREOF” (Kumquat Biosciences Inc., priority 2021, published 2024)

Target: T1, KRAS G12D 1-169 (His-tagged, GDP-loaded) (Homo sapiens, UniProt P01116, G12D)
T1 construct: His -tagged GDP-loaded G12D 1-169; made in house; host or cells: E. coli, e.g. BL21 (DE3)
Assay: Covalent modification of KRAS protein by intact-protein LC-MS
Assay type: binding
Conditions: comparable or same conditions as K-Ras G12S
Experimental: Test compounds are prepared as 10 mM stock solutions in DMSO (Fisher cat #BP231-100). KRAS protein (His -tagged GDP-loaded wildtype 1-169, His -tagged GDP-loaded G12S 1-169 or His -tagged GDP-loaded G12D 1-169) is diluted to ˜2 μM in appropriate buffer (e.g., a Hepes buffer at physiological conditions). For testing KRAS modification, compounds are diluted to 50× final test concentration in DMSO in 96-well storage plates. 2 μl of the diluted 50× compounds are added to appropriate wells in the PCR plate (Fisher cat #AB-0800). ˜49 μl of the stock protein solution is added to each well of the 96-well PCR plate. Reactions are mixed carefully. The plate is sealed well with aluminum plate seal, and stored in drawer at room temperature for 24 hrs. 5 μl of 2% formic acid (Fisher cat #A117-50) in MilliQ H2O is then added to each well followed by mixing with a pipette. The plate is then resealed with aluminum seal and stored until mass spectrometry analysis.
The extent of covalent modification of KRAS proteins was determined by liquid chromatography electrospray mass spectrometry analysis of the intact proteins on a Thermo Q-Exactive Plus mass spectrometer. 20 μl of sample was injected onto a bioZen 3.6 μm Intact C4 column (Phenomenex cat #00B-4767-AN) placed in a column oven set to 40° C. and separated using a suitable LC gradient from ˜20% to ˜60% solvent B. Solvent A was 0.1% formic acid and solvent B was 0.1% formic acid in acetonitrile. HESI source settings were set to 40, 5 and 1 for the sheath, auxiliary and sweep gas flow, respectively. The spray voltage was 4 kV, and the capillary temperature was 320° C. S-lens RF level was 50 and auxiliary gas heater temperature was set to 200° C. The mass spectrometry was acquired using a scan range from 650 to 1750 m/z using positive polarity at a mass resolution of 70,000, AGC target of 1e6 ions and maximum injection time of 250 ms. The recorded protein mass spectrum was deconvoluted from the raw data file using Protein Deconvolution v4.0 (Thermo). The protein mass and adduct masses were exported with their peak intensities. The peak intensities for the unmodified and modified protein were used to calculate the percent covalent modification of the KRAS protein based on the following equation: % KRAS protein modification=((KRAS−compound)/(KRAS)+(KRAS−Compound))*100.

T1 sequence (P01116 1-169 isoform P01116-2 G12D): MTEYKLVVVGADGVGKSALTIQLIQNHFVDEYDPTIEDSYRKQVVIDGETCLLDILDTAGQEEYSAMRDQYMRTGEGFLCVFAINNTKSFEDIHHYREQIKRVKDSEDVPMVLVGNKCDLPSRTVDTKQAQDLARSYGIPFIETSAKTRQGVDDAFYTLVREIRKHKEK

covalent labeling of K-Ras G12D	Compound
essentially no detectable labeling	Nc1nc2c(-c3c(Cl)cc4c(N5CCCC6(CN(C(=O)n7cncn7)CCO6)C5)nc(OC[C@@]56CCCN5C[C@H](F)C6)nc4c3F)ccc(F)c2s1 (stereo partly drawn) [Compound A125, (8-(7-(2-amino-7-fluorobenzo-[d]thiazol-4-yl)-6-chloro-8-fluoro-2-(((2R,7aS)-2-fluoro-tetrahydro-1H-pyrrolizin-7a(5H)-yl)methoxy)quinazolin-4-yl)-1-oxa-4,8-diazaspiro[5.5]-undecan-4-yl)(1H-1,2,4-triazol-1-yl)methanone]
essentially no detectable labeling	Nc1nc2c(-c3c(Cl)cc4c(N5CCOC6(CCN(C(=O)n7cncn7)CC6)C5)nc(OCC56CCCN5C[C@H](F)C6)nc4c3F)ccc(F)c2s1 (stereo partly drawn) [Compound A243, (4-(7-(2-amino-7-fluorobenzo-[d]thiazol-4-yl)-6-chloro-8-fluoro-2-(((2R)-2-fluorotetra-hydro-1H-pyrrolizin-7a(5H)-yl)methoxy)quinazolin-4-yl)-1-oxa-4,9-diazaspiro[5.5]undecan-9-yl)(1H-1,2,4-triazol-1-yl)-methanone]
essentially no detectable labeling	Nc1nc2c(-c3c(Cl)cc4c(N5CCC6(CN(C(=O)n7cncn7)CCO6)C5)nc(OC[C@@]56CCCN5C[C@H](F)C6)nc4c3F)ccc(F)c2s1 (stereo partly drawn) [Compound A202, (2-(7-(2-amino-7-fluorobenzo-[d]thiazol-4-yl)-6-chloro-8-fluoro-2-(((2R,7aS)-2-fluoro-tetrahydro-1H-pyrrolizin-7a(5H)-yl)methoxy)quinazolin-4-yl)-6-oxa-2,9-diazaspiro[4.5]-decan-9-yl)(1H-1,2,4-triazol-1-yl)methanone]
essentially no detectable labeling	Nc1nc2c(-c3c(Cl)cc4c(N5CCC56CCCN(C(=O)n5cncn5)CC6)nc(OC[C@@]56CCCN5C[C@H](F)C6)nc4c3F)ccc(F)c2s1 (stereo partly drawn) [Compound A209, (1-(7-(2-amino-7-fluorobenzo-[d]thiazol-4-yl)-6-chloro-8-fluoro-2-(((2R,7aS)-2-fluoro-tetrahydro-1H-pyrrolizin-7a(5H)-yl)methoxy)quinazolin-4-yl)-1,7-diazaspiro[3.6]decan-7-yl)(1H-1,2,4-triazol-1-yl)-methanone]
essentially no detectable labeling	Nc1nc2c(-c3c(Cl)cc4c(N5CC6(CCN(C(=O)n7cncn7)C6)C5)nc(OC[C@@]56CCCN5C[C@H](F)C6)nc4c3F)ccc(F)c2s1 [Compound A279, (2-(7-(2-amino-7-fluorobenzo-[d]thiazol-4-yl)-6-chloro-8-fluoro-2-(((2R,7aS)-2-fluoro-tetrahydro-1H-pyrrolizin-7a(5H)-yl)methoxy)quinazolin-4-yl)-2,6-diazaspiro[3.4]octan-6-yl)(1H-1,2,4-triazol-1-yl)-methanone]
essentially no detectable labeling	Nc1nc2c(-c3c(Cl)cc4c(N5CCCCC6(CN(C(=O)n7cncn7)C6)C5)nc(OC[C@@]56CCCN5C[C@H](F)C6)nc4c3F)ccc(F)c2s1 [Compound A265, (6-(7-(2-amino-7-fluorobenzo-[d]thiazol-4-yl)-6-chloro-8-fluoro-2-(((2R,7aS)-2-fluoro-tetrahydro-1H-pyrrolizin-7a(5H)-yl)methoxy)quinazolin-4-yl)-2,6-diazaspiro[3.6]decan-2-yl)(1H-1,2,4-triazol-1-yl)-methanone]
essentially no detectable labeling	Nc1nc2c(-c3c(Cl)cc4c(N5CCC56CCCN(C(=O)n5cncn5)C6)nc(OCC56CCCN5CC(F)C6)nc4c3F)ccc(F)c2s1 (stereo not drawn) [Compound A197, (1-(7-(2-amino-7-fluorobenzo-[d]thiazol-4-yl)-6-chloro-8-fluoro-2-((2-fluorotetrahydro-1H-pyrrolizin-7a(5H)-yl)meth-oxy)quinazolin-4-yl)-1,6-diazaspiro[3.5]nonan-6-yl)(1H-1,2,4-triazol-1-yl)methanone]
essentially no detectable labeling	N#Cc1c(N)sc2c(F)ccc(-c3c(Cl)cc4c(N5CCCC6(CCN(C(=O)n7cncn7)C6)C5)nc(OC[C@@]56CCCN5C[C@H](F)C6)nc4c3F)c12 (stereo partly drawn) [Compound A269, 4-(4-(2-(1H-1,2,4-triazole-1-carbonyl)-2,7-diazaspiro[4.5]-decan-7-yl)-6-chloro-8-fluoro-2-(((2R,7aS)-2-fluorotetrahydro-1H-pyrrolizin-7a(5H)-yl)meth-oxy)quinazolin-7-yl)-2-amino-7-fluorobenzo[b]thiophene-3-carbonitrile]

The next lines start with the compound.

Compound	covalent labeling of K-Ras G12D
COCCN1CCC(Oc2nc(N3CCCCC4(CN(C(=O)n5cncn5)C4)C3)c3cc(Cl)c(-c4ccc(F)c5sc(N)c(C#N)c45)c(F)c3n2)CC1 [Compound A119, 4-(4-(2-(1H-1,2,4-triazole-1-carbonyl)-2,6-diazaspiro[3.6]-decan-6-yl)-6-chloro-8-fluoro-2-((1-(2-methoxyethyl)piperi-din-4-yl)oxy)quinazolin-7-yl)-2-amino-7-fluorobenzo[b]-thiophene-3-carbonitrile]	essentially no detectable labeling
Cc1nc(C)n(C(=O)N2CC3(COCCN(c4nc(OC[C@@]56CCCN5C[C@H](F)C6)nc5c(F)c(-c6ccc(F)c7sc(N)c(C#N)c67)c(Cl)cc45)C3)C2)n1 [Compound A185, 2-amino-4-(6-chloro-4-(2-(3,5-dimethyl-1H-1,2,4-triazole-1-carbonyl)-6-oxa-2,9-diazaspiro-[3.6]decan-9-yl)-8-fluoro-2-(((2R,7aS)-2-fluorotetrahydro-1H-pyrrolizin-7a(5H)-yl)meth-oxy)quinazolin-7-yl)-7-fluoro-benzo[b]thiophene-3-carbonitrile]	essentially no detectable labeling
N#Cc1c(N)sc2c(F)ccc(-c3c(Cl)cc4c(N5CCOC6(CN(C(=O)n7cncn7)C6)C5)nc(OC[C@@]56CCCN5C[C@H](F)C6)nc4c3F)c12 [Compound A162, 4-(4-(2-(1H-1,2,4-triazole-1-carbonyl)-5-oxa-2,8-diaza-spiro[3.5]nonan-8-yl)-6-chloro-8-fluoro-2-(((2R,7aS)-2-fluoro-tetrahydro-1H-pyrrolizin-7a(5H)-yl)methoxy)quinazolin-7-yl)-2-amino-7-fluorobenzo-[b]thiophene-3-carbonitrile]	essentially no detectable labeling
N#Cc1c(N)sc2c(F)ccc(-c3c(Cl)cc4c(OC5CCCCN(C(=O)n6cncn6)C5)nc(OC[C@@]56CCCN5C[C@H](F)C6)nc4c3F)c12 (stereo partly drawn) [Compound A258, 4-(4-((1-(1H-1,2,4-triazole-1-carbonyl)azepan-3-yl)oxy)-6-chloro-8-fluoro-2-(((2R,7aS)-2-fluorotetrahydro-1H-pyrrolizin-7a(5H)-yl)methoxy)quinazolin-7-yl)-2-amino-7-fluorobenzo-[b]thiophene-3-carbonitrile]	essentially no detectable labeling
N#Cc1c(N)sc2c(F)ccc(-c3c(Cl)cc4c(OC5CCCCN(C(=O)n6cncn6)C5)nc(OC[C@@]56CCCN5C[C@H](F)C6)nc4c3F)c12 (stereo partly drawn) [Compound A169, 4-(4-((1-(1H-1,2,4-triazole-1-carbonyl)azepan-3-yl)oxy)-6-chloro-8-fluoro-2-(((2R,7aS)-2-fluorotetrahydro-1H-pyrrolizin-7a(5H)-yl)methoxy)quinazolin-7-yl)-2-amino-7-fluorobenzo-[b]thiophene-3-carbonitrile]	essentially no detectable labeling
Cc1ncn(C(=O)N2CC3CCN(c4nc(OC[C@@]56CCCN5C[C@H](F)C6)nc5c(F)c(-c6ccc(F)c7sc(N)c(C#N)c67)c(Cl)cc45)C3C2)n1 (stereo partly drawn) [Compound A304, 2-amino-4-(6-chloro-8-fluoro-2-(((2R,7aS)-2-fluorotetrahydro-1H-pyrrolizin-7a(5H)-yl)meth-oxy)-4-(5-(3-methyl-1H-1,2,4-triazole-1-carbonyl)hexahydro-pyrrolo[3,4-b]pyrrol-1(2H)-yl)quinazolin-7-yl)-7-fluoro-benzo[b]thiophene-3-carbonitrile]	essentially no detectable labeling
N#Cc1c(N)sc2c(F)ccc(-c3c(Cl)cc4c(N5CC6(CCCCN(C(=O)n7cncn7)C6)C5)nc(OC[C@@]56CCCN5C[C@H](F)C6)nc4c3F)c12 [Compound A285, 4-(4-(6-(1H-1,2,4-triazole-1-carbonyl)-2,6-diazaspiro[3.6]-decan-2-yl)-6-chloro-8-fluoro-2-(((2R,7aS)-2-fluorotetra-hydro-1H-pyrrolizin-7a(5H)-yl)methoxy)quinazolin-7-yl)-2-amino-7-fluorobenzo[b]thio-phene-3-carbonitrile]	essentially no detectable labeling
